Values of other authors, collected in patent US6734210B2, “Therapeutically improved salts of azelaic acid” (priority 2000, dated 2004).

solubility in cosmetic oils (cosmetic oils): little or no solubility
maximum azelaic acid content of a water solution (water): about 0.24 % by weight (w/w)
Structure (SMILES): O=C(O)CCCCCCCC(=O)O [azelaic acid]
